Legend:
[1] = target: Sodium-dependent serotonin transporter (Rattus norvegicus, UniProt P31652); format: functional
Description: Inhibition of serotonin reuptake in rat whole brains without cerebellum

[2] = target: Norepinephrine transporter (Rattus norvegicus, UniProt Q9WTR4)
Description: Inhibition of norepinephrine reuptake in rat whole brains minus cerebellar

[3] = target: Sodium-dependent dopamine transporter (Rattus norvegicus, UniProt P23977); format: functional
Description: Inhibition of the reuptake of dopamine in rat corpora striata.

Acetylcholinesterase = target: T1, Acetylcholinesterase (Rattus norvegicus, UniProt P37136)
T1 sequence (P37136 whole entry): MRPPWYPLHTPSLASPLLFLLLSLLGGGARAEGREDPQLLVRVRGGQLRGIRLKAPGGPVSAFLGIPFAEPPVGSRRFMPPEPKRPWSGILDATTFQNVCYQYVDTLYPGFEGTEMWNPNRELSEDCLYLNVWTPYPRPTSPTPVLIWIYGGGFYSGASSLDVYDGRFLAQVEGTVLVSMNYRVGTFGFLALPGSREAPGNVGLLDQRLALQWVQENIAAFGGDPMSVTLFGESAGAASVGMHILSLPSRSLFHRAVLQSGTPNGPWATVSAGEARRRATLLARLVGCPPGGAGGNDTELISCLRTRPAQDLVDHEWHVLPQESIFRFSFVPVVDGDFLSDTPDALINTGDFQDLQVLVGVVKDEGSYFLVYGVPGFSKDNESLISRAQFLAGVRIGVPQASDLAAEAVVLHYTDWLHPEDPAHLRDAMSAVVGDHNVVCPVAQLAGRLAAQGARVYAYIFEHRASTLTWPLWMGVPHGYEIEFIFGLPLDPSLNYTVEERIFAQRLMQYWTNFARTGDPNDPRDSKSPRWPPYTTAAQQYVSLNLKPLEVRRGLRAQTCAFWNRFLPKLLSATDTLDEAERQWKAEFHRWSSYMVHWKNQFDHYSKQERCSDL
Description: In vitro inhibition against acetylcholinesterase in rat striata.

in vivo = details: rat, ip
Description: Toxicity evaluated in rats after intraperitoneal administration.

Mus musculus [4] = organism: Mus musculus; format: functional; details: at 5 mg/kg
Description: Reversal of scopolamine-induced memory impairment in mice at 5 mg/Kg administered subcutaneously.

Mus musculus [5] = organism: Mus musculus; format: functional; details: at 0.16 mg/kg
Description: Reversal of scopolamine-induced memory impairment in mice at 0.16 mg/Kg administered subcutaneously.

Mus musculus [6] = organism: Mus musculus; format: functional; details: at […]
Description: Reversal of scopolamine-induced memory impairment in mice at 0.31 mg/Kg administered subcutaneously.

Mus musculus [7] = organism: Mus musculus; format: functional; details: at 2.5 mg/kg
Description: Reversal of scopolamine-induced memory impairment in mice at 2.5 mg/Kg administered subcutaneously.

Mus musculus [8] = organism: Mus musculus; format: functional; details: at 0.63 mg/kg
Description: Reversal of scopolamine-induced memory impairment in mice at 0.63 mg/Kg administered subcutaneously.

Mus musculus [9] = organism: Mus musculus; format: functional; details: at 1.25 mg/kg
Description: Reversal of scopolamine-induced memory impairment in mice at 1.25 mg/Kg administered subcutaneously.

[10] = Toxicity was evaluated in rats, after intraperitoneal administration;Value ranges from (40-80).; format: organism-based; details: rat, in vivo, ip

Norepinephrine transporter, sequence (Q9WTR4 whole entry): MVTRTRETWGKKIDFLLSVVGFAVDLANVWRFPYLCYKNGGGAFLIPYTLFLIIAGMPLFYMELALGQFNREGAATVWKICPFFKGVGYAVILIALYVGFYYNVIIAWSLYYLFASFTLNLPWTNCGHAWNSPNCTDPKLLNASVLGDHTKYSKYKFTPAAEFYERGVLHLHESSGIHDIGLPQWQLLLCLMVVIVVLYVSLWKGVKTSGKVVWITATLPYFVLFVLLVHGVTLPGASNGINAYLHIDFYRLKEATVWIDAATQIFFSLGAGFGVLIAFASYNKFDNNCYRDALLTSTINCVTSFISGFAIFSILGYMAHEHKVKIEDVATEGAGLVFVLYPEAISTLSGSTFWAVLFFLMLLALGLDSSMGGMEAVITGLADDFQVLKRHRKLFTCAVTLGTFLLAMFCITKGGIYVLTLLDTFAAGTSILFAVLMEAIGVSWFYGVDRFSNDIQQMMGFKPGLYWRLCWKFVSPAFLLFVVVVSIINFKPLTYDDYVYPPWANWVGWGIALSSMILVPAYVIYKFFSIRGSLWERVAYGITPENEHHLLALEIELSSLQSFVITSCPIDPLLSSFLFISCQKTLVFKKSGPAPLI
Sodium-dependent serotonin transporter, sequence (P31652 whole entry): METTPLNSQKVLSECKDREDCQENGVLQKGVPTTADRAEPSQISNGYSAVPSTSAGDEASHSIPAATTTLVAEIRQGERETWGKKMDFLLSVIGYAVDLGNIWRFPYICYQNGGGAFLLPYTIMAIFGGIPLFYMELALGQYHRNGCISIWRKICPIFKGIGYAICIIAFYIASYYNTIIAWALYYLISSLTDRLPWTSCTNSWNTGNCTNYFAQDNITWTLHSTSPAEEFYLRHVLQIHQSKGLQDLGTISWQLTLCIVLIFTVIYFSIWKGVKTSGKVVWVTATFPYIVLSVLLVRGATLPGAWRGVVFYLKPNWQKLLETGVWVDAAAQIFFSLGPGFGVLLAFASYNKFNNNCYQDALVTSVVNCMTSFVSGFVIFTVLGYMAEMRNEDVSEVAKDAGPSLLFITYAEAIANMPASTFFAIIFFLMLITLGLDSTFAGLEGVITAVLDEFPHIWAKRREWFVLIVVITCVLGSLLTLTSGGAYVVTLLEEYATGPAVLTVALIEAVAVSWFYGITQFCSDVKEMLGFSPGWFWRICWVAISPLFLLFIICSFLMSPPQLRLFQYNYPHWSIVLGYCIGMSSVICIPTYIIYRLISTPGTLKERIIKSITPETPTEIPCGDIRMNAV
Sodium-dependent dopamine transporter, sequence (P23977 whole entry): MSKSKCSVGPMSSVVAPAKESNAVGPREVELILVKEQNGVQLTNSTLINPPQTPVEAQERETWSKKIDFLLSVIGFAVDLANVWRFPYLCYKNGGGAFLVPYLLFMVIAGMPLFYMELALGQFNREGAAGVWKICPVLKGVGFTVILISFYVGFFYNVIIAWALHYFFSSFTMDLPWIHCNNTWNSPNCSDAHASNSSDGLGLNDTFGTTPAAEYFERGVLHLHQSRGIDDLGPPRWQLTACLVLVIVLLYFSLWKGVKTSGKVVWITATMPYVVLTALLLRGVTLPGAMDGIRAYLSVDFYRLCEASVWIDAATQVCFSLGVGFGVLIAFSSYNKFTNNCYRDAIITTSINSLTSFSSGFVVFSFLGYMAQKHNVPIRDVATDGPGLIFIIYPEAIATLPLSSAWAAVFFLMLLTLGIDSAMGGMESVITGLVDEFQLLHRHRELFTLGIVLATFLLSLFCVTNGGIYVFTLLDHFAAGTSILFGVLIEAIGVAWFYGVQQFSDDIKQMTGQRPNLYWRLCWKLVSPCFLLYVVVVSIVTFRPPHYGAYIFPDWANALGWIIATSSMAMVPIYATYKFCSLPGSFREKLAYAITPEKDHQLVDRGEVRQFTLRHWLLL

SMILES | IC50 [1] | IC50 [2] | IC50 [3] | IC50 (Acetylcholinesterase) | LD50 (in vivo) | Animals (Mus musculus [4]) | Animals (Mus musculus [5]) | Animals (Mus musculus [6]) | Animals (Mus musculus [7]) | Animals (Mus musculus [8]) | Animals (Mus musculus [9]) | LD50 [10]
O=C(O)/C=C/C(=O)O.OC1CCCc2nc3ccccc3c(NCc3cccs3)c21 (configuration not stated) | 20 µM | 290 nM | 2400 nM | 15.3 µM | > 80 mg/kg |  |  |  |  |  |  | 
O=C(O)/C=C/C(=O)O.OC1CCCc2nc3ccccc3c(NCc3c(F)c(F)c(F)c(F)c3F)c21 (configuration not stated) |  | 11000 nM |  | 12.6 µM | > 80 mg/kg | 20% | 7% | 7% | 0% | 7% | 13% | 
O=C(O)/C=C/C(=O)O.OC1CCCc2nc3ccccc3c(NCCCC(c3cccc(F)c3)c3cccc(F)c3)c21 (configuration not stated) |  |  |  | 63 µM | > 80 mg/kg |  |  |  |  |  |  | 
OC1CCCc2nc3cc(Cl)ccc3c(NCc3ccc(F)cc3)c21 (configuration not stated) | 6.6 µM | 2200 nM | 4100 nM | 0.823 µM | > 80 mg/kg | 0% | 13% | 7% | 0% | 7% | 7% | 
Nc1c2c(nc3cc(Cl)ccc13)CCCC2O (configuration not stated) | > 20 µM | > 20000 nM | > 20000 nM | 0.0117 µM | > 10 mg/kg | 16% | 7% | 7% | 0% | 0% | 7% | 
OC1CCCc2nc3ccccc3c(NCc3ccc(F)cc3)c21 (configuration not stated) | 12 µM | 1800 nM | 2900 nM | 16.7 µM |  | 6% | 7% | 20% | 33% | 25% | 27% | < 80 mg/kg
COc1ccc(CNc2c3c(nc4ccccc24)CCCC3O)cc1 (configuration not stated) | 5 µM | 25000 nM | 5300 nM | 10.9 µM | > 80 mg/kg |  |  |  |  |  |  | 
CN(C)CCNc1c2c(nc3ccccc13)CCCC2O (configuration not stated) |  |  |  | 7.68 µM | > 80 mg/kg |  |  |  |  |  |  | 
OC1CCCc2nc3ccccc3c(NCc3ccc(C(F)(F)F)cc3)c21 (configuration not stated) | 6.6 µM | 270 nM | 2400 nM | 18.1 µM | > 80 mg/kg | 20% | 22% | 8% | 0% | 7% | 15% | 
OC1CCCc2nc3cc(F)ccc3c(NCc3ccccc3)c21 (configuration not stated) |  | 200 nM |  | 8.63 µM |  | 0% | 13% | 0% | 0% | 0% | 0% | < 80 mg/kg
OC1CCCc2nc3ccccc3c(NCc3ccccc3Cl)c21 (configuration not stated) | 9.3 µM | 43 nM | 130 nM | 10.3 µM | > 80 mg/kg | 7% | 0% | 27% | 13% | 7% | 27% | 
Nc1c2c(nc3cc(F)ccc13)CCCC2O (configuration not stated) |  | > 10000 nM |  | 0.292 µM | 40 mg/kg | 40% | 73% | 29% | 33% | 20% | 20% | 
OC1CCCc2nc3ccccc3c(NCCCC(c3ccc(F)cc3)c3ccc(F)cc3)c21 (configuration not stated) |  |  |  | 87.8 µM | > 80 mg/kg |  |  |  |  |  |  | 
OC1CCCc2nc3cc(C(F)(F)F)ccc3c(NCc3ccccc3)c21 (configuration not stated) |  |  |  | 68.2 µM | > 80 mg/kg |  |  |  |  |  |  | 
COc1ccc2c(N)c3c(nc2c1)CCCC3O (configuration not stated) |  |  |  | 2 µM | > 80 mg/kg |  |  |  |  |  |  | 
OC1CCCc2nc3ccccc3c(NCCc3ccccc3)c21 (configuration not stated) | 7.7 µM | 1400 nM | 4700 nM | 3.39 µM | > 80 mg/kg | 0% | 7% | 20% | 0% | 0% | 23% | 
Nc1c2c(nc3ccccc13)CCC2O (configuration not stated) |  |  |  | 5.97 µM | > 80 mg/kg | 7% | 13% | 13% | 7% | 0% | 0% | 
OC1CCCc2nc3cc(Cl)ccc3c(NCc3ccccc3)c21 (configuration not stated) | 15 µM | 820 nM | 1300 nM | 1.3 µM | > 80 mg/kg | 0% | 0% | 13% | 7% | 7% | 7% | 
OC1CCCc2nc3ccccc3c(NCc3ccc(Cl)cc3)c21 (configuration not stated) | 5.7 µM | 1100 nM | 9800 nM | 27.2 µM | > 80 mg/kg |  |  |  |  |  |  | 
OC1CCCc2nc3ccccc3c(NCc3cccc(Cl)c3)c21 (configuration not stated) |  |  |  | 13.3 µM | > 80 mg/kg |  |  |  |  |  |  | 
OC1CCCc2nc3ccccc3c(NCc3ccccc3F)c21 (configuration not stated) | 17 µM | 110 nM | 410 nM | 41.3 µM |  | 7% | 7% | 14% | 20% | 33% | 7% | < 80 mg/kg
Cc1ccc(CNc2c3c(nc4ccccc24)CCCC3O)cc1 (configuration not stated) | 8 µM | 1100 nM | 2200 nM | 21 µM | > 80 mg/kg |  |  |  |  |  |  | 
OC1CCCc2nc3ccccc3c(NCc3cccc(C(F)(F)F)c3)c21 (configuration not stated) | 2.3 µM | 930 nM | 2400 nM | 14.2 µM |  | 0% | 0% | 0% | 0% | 0% | 7% | < 80 mg/kg
OC1CCCc2nc3ccccc3c(NCCCC(c3ccccc3)c3ccccc3)c21 (configuration not stated) | 5.7 µM | 1500 nM | 2100 nM | 49.3 µM | > 80 mg/kg | 6% | 20% | 6% | 0% | 6% | 13% | 
COc1cccc(CNc2c3c(nc4ccccc24)CCCC3O)c1 (configuration not stated) | 6.2 µM | 1500 nM | 2100 nM | 21.1 µM | > 80 mg/kg | 0% | 0% | 0% | 0% | 0% | 0% | 
COc1ccccc1CNc1c2c(nc3ccccc13)CCCC2O (configuration not stated) | 9.8 µM | 4800 nM | 720 nM | 36 µM | 80 mg/kg | 27% | 33% | 7% | 13% | 20% | 7% | 
OC1CCCc2nc3cc(F)ccc3c(NCc3ccccc3C(F)(F)F)c21 (configuration not stated) | 20 µM | 540 nM | 310 nM | 20.1 µM | > 80 mg/kg | 13% | 0% | 20% | 0% | 7% | 0% | 
OC1CCCc2nc3ccccc3c(NCCCOc3ccccc3)c21 (configuration not stated) |  |  |  | 3.98 µM | > 80 mg/kg |  | 0% | 0% | 7% | 0% | 13% | 
